Key:
HCT116 MTAP null cells = test: HCT116 MTAP null cell line proliferation / cell viability (CellTiter-Glo, 6 days); type: cell-based; details: 144 h; HCT116 MTAP null cells, 6 days treatment, CellTiter-Glo cell viability; read-out: HCT-116 MTAP null IC50
Method in brief: (§1)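 Anti-proliferative IC50s were derived from CellTiter-Glo signal in HCT116 parent and MTAP-null cells after six days on compound. Serial dilutions reached top concentrations of 1, 10 or 50 μM, with DMSO-only wells as control.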

HCT116 WT cells = test: HCT116 WT (parent) cell line proliferation / cell viability (CellTiter-Glo, 6 days); type: cell-based; details: Homo sapiens, HCT-116, 144 h, 6 days treatment
Method in brief: as §1

Q: For CN(C(=O)c1ccc2nc(N)c3cnn(C)c3c2c1)[C@@H]1COCc2nc(Br)ccc21 (single isomer, unassigned) [Example 418], which IC50 (HCT116 MTAP null cells) is on record?
A: 3 nM

Q: What about the IC50 (HCT116 WT cells) of the same molecule?
A: 421 nM

Q: Which IC50 (HCT116 MTAP null cells) does the source give for CN(C(=O)c1ccc2nc(N)c3c(c2c1)COC3)[C@@H]1COc2cc(OC(F)F)ccc21 (single isomer, unassigned) [Example 526] here?
A: 52 nM

Q: And the IC50 (HCT116 WT cells)?
A: 3820 nM

Q: How did the IC50 (HCT116 MTAP null cells) turn out when CN(C(=O)c1cc2c(cc1F)nc(N)c1cnn(C)c12)[C@H]1COCc2cc(C#N)ccc21 (single isomer, unassigned) [Example 596] was run?
A: 185 nM

Q: And the IC50 (HCT116 WT cells)?
A: 17100 nM

Q: What does the source list for CCN(C(=O)c1cc2c(cn1)nc(N)c1cnn(C)c12)C1COc2cc(C(F)(F)F)ccc21 (stereo in doubt) [Example 238, 4-amino-N-ethyl-1-methyl-N-((3S)-6-(trifluoromethyl)-2,3-dihydro-1-benzofuran-3-yl)-1H-pyrazolo[4,3-c][1,7]naph-thyridine-8-carboxamide]?
A: IC50 (HCT116 MTAP null cells): 215 nM; IC50 (HCT116 WT cells): 13000 nM

Q: Which IC50 (HCT116 MTAP null cells) does the source give for CN(C(=O)c1cc2c(cn1)nc(N)c1cnn(C)c12)[C@@H]1COCc2cc(C(F)(F)F)ccc21 [Example 288, 4-amino-N,1-dimethyl-N-((4S)-7-(trifluoromethyl)-3,4-dihydro-1H-2-benzopyran-4-yl)-1H-pyrazolo[4,3-c][1,7]naphthyr-idine-8-carboxamide] here?
A: 6 nM

Q: And the IC50 (HCT116 WT cells)?
A: 72 nM

Q: How did the IC50 (HCT116 MTAP null cells) turn out when C[C@H]1OC[C@@H](N(C)C(=O)c2ccc3nc(N)c4cnn(C)c4c3c2)c2ccc(C(F)(F)F)cc21 (single isomer, unassigned) [Example 414] was run?
A: 1 nM

Q: What about the IC50 (HCT116 WT cells) of the same molecule?
A: 19 nM

Q: With CN(C(=O)c1cc2c3c(c(N)nc2cc1Cl)COC3)C1COc2cc(C(F)(F)F)cc(F)c21 (racemic) [Example 472, 4-amino-7-chloro-N-((3R)-4-fluoro-6-(trifluoromethyl)-2,3-dihydro-1-benzofuran-3-yl)-N-methyl-1,3-dihydrofuro[3,4-c]quinoline-8-carboxamide and 4-amino-7-chloro-N-((3S)-4-fluoro-6-(trifluoromethyl)-2,3-dihydro-1-benzofuran-3-yl)-N-methyl-1,3-dihydrofuro[3,4-c]quinoline-8-carboxamide] as the molecule, how does the IC50 (HCT116 MTAP null cells) read?
A: 22 nM

Q: And the IC50 (HCT116 WT cells)?
A: 1140 nM

Q: With Cc1cc(-c2ccc3c(c2)OC[C@H]3N(C)C(=O)c2ccc3nc(N)c4cnn(C)c4c3c2)co1 [Example 632, 4-amino-N,1-dimethyl-N-((3S)-6-(5-methyl-3-furanyl)-2,3-dihydro-1-benzofuran-3-yl)-1H-pyrazolo[4,3-c]quinoline-8-carboxamide] as the molecule, how does the IC50 (HCT116 MTAP null cells) read?
A: 26 nM

Q: And the IC50 (HCT116 WT cells)?
A: 841 nM

Q: With CN(C(=O)c1ccc2nc(N)c3cnn(C)c3c2c1)[C@@H]1COc2cc(-c3ccnc(OCC(F)(F)F)c3)ccc21 [Example 662, 4-amino-N,1-dimethyl-N-((3S)-6-(2-(2,2,2-trifluoroethoxy)-4-pyridinyl)-2,3-dihydro-1-benzofuran-3-yl)-1H-pyrazolo[4,3-c]quinoline-8-carboxamide] as the molecule, how does the IC50 (HCT116 MTAP null cells) read?
A: 21 nM

Q: What about the IC50 (HCT116 WT cells) of the same molecule?
A: 1120 nM

Q: What does the source list for CN(C(=O)c1ccc2nc(N)c3c(c2c1)COC3)[C@H]1CCOc2cc(C(F)(F)F)ccc21 (single isomer, unassigned) [Example 579]?
A: IC50 (HCT116 MTAP null cells): 2370 nM; IC50 (HCT116 WT cells): 4510 nM

Q: What does the source list for CCN(C(=O)c1ccc2nc(N)c3c(c2c1)CO[C@@H]3C)[C@H]1COc2cc(C(F)(F)F)ccc21 (single isomer, unassigned) [Example 540]?
A: IC50 (HCT116 MTAP null cells): 722 nM; IC50 (HCT116 WT cells): 18600 nM

Q: What does the source list for Cc1nc2nc(N)c3cnn(C)c3c2cc1C(=O)N(C)[C@@H]1COc2cc(C(F)(F)F)ccc21 [Example 251, 4-amino-N,1,7-trimethyl-N-((3S)-6-(trifluoromethyl)-2,3-dihydro-1-benzofuran-3-yl)-1H-pyrazolo[4,3-c][1,8]-naphthyridine-8-carboxamide]?
A: IC50 (HCT116 MTAP null cells): 7 nM; IC50 (HCT116 WT cells): 217 nM

Q: How did the IC50 (HCT116 MTAP null cells) turn out when CN(C(=O)c1ccc2nc(N)c3cnn(C)c3c2c1)[C@H]1CCc2nc(-c3cnn(C)c3)ccc21 (single isomer, unassigned) [Example 624] was run?
A: 75 nM

Q: And the IC50 (HCT116 WT cells)?
A: 6510 nM

Q: Which IC50 (HCT116 MTAP null cells) does the source give for CN(C(=O)c1cc2c(cc1F)nc(N)c1cnn(C)c12)[C@@H]1COc2cc(S(F)(F)(F)(F)F)ccc21 (single isomer, unassigned) [Example 382] here?
A: 4 nM

Q: And the IC50 (HCT116 WT cells)?
A: 63 nM

Q: For COc1ccc2c(n1)OC[C@H]2N(C)C(=O)c1ccc2nc(N)c3c(c2c1)COC3 (single isomer, unassigned) [Example 524], which IC50 (HCT116 MTAP null cells) is on record?
A: 396 nM

Q: And the IC50 (HCT116 WT cells)?
A: 24500 nM

Q: Which results are given for COc1ccc2c(c1)OC[C@H]2N(C)C(=O)c1ccc2nc(N)c3cnn(C)c3c2c1 [Example 671, (S)-4-amino-N-(6-methoxy-2,3-dihydrobenzofuran-3-yl)-N,1-dimethyl-1H-pyrazolo[4,3-c]quinoline-8-carboxamide]?
A: IC50 (HCT116 MTAP null cells): 34 nM; IC50 (HCT116 WT cells): 4280 nM

Q: How did the IC50 (HCT116 MTAP null cells) turn out when Cc1noc2c1c(N)nc1ccc(C(=O)N(C)[C@@H]3COCc4cc(C#N)ccc43)cc12 [Example 497, 4-amino-N-((4S)-7-cyano-3,4-dihydro-1H-2-benzopyran-4-yl)-N,3-dimethyl[1,2]oxazolo[4,5-c]quinoline-8-carboxamide] was run?
A: 350 nM

Q: And the IC50 (HCT116 WT cells)?
A: 19700 nM

Q: For CN(C(=O)c1cc2c(cc1F)nc(N)c1c2cnn1C)[C@@H]1COCc2cc(C(F)(F)F)cnc21 (single isomer, unassigned) [Example 606], which IC50 (HCT116 MTAP null cells) is on record?
A: 724 nM

Q: What about the IC50 (HCT116 WT cells) of the same molecule?
A: 13500 nM

Q: With Cn1ncc2c(N)nc3cc(F)c(C(=O)N(C4CC4)[C@@H]4COc5cc(C(F)(F)F)ccc54)cc3c21 [Example 200, (S)-4-amino-N-cyclopropyl-7-fluoro-1-methyl-N-(6-(trifluoromethyl)-2,3-dihydrobenzofuran-3-yl)-1H-pyrazolo[4,3-c]quinoline-8-carboxamide] as the molecule, how does the IC50 (HCT116 MTAP null cells) read?
A: 8 nM

Q: What about the IC50 (HCT116 WT cells) of the same molecule?
A: 112 nM

Q: How did the IC50 (HCT116 MTAP null cells) turn out when Cc1nn(C)c2c1c(N)nc1cnc(C(=O)N(C)[C@@H]3COCc4cc(C#N)ccc43)cc12 [Example 521, 4-amino-N-((4S)-7-cyano-3,4-dihydro-1H-2-benzopyran-4-yl)-N,1,3-trimethyl-1H-pyrazolo[4,3-c][1,7]naphthyridine-8-carboxamide] was run?
A: 168 nM

Q: And the IC50 (HCT116 WT cells)?
A: 14100 nM

Q: With CN(C(=O)c1ccc2nc(N)c3cnn(C)c3c2c1)[C@@H]1COc2cc(-c3cscn3)ccc21 [Example 635, 4-amino-N,1-dimethyl-N-((3S)-6-(1,3-thiazol-4-yl)-2,3-dihydro-1-benzofuran-3-yl)-1H-pyrazolo[4,3-c]quinoline-8-carboxamide] as the molecule, how does the IC50 (HCT116 MTAP null cells) read?
A: 9 nM

Q: And the IC50 (HCT116 WT cells)?
A: 613 nM

Q: For CN(C(=O)c1ccc2nc(N)c3cnn(C)c3c2c1)[C@@H]1COc2cc(-c3cnn(C)c3)ccc21 [Example 629, 4-amino-N,1-dimethyl-N-((3S)-6-(1-methyl-1H-pyrazol-4-yl)-2,3-dihydro-1-benzofuran-3-yl)-1H-pyrazolo[4,3-c]quinoline-8-carboxamide], which IC50 (HCT116 MTAP null cells) is on record?
A: 4 nM

Q: And the IC50 (HCT116 WT cells)?
A: 691 nM

Q: For CN(C(=O)c1cc2c(cc1F)nc(N)c1cnn(C)c12)[C@@H]1COCc2c1ccc(C(F)(F)F)c2F (single isomer, unassigned) [Example 432], which IC50 (HCT116 MTAP null cells) is on record?
A: 9 nM

Q: And the IC50 (HCT116 WT cells)?
A: 127 nM

Q: With CN(C(=O)c1cc2c3c(c(N)nc2cn1)COC3)[C@@H]1COc2cc(Cl)c(C(F)(F)F)cc21 (single isomer, unassigned) [Example 548] as the molecule, how does the IC50 (HCT116 MTAP null cells) read?
A: 58 nM

Q: And the IC50 (HCT116 WT cells)?
A: 3060 nM

Q: With CCN(C(=O)c1ccc2nc(N)c3c(c2c1)CO[C@@H]3C)[C@H]1COCc2cc(Br)ccc21 (single isomer, unassigned) [Example 397] as the molecule, how does the IC50 (HCT116 MTAP null cells) read?
A: 599 nM

Q: What about the IC50 (HCT116 WT cells) of the same molecule?
A: 18700 nM

Q: What does the source list for CN(C(=O)c1ccc2nc(N)c3cnn(C)c3c2c1)[C@@H]1COc2cc(S(F)(F)(F)(F)F)ccc21 (single isomer, unassigned) [Example 366]?
A: IC50 (HCT116 MTAP null cells): 6 nM; IC50 (HCT116 WT cells): 155 nM

Q: Which IC50 (HCT116 MTAP null cells) does the source give for Nc1nc2cnc(C(=O)N(C3CC3)[C@@H]3COc4cc(C(F)(F)F)ccc43)cc2c2c1COC2 (single isomer, unassigned) [Example 547] here?
A: 122 nM

Q: And the IC50 (HCT116 WT cells)?
A: 2460 nM

Q: Which IC50 (HCT116 MTAP null cells) does the source give for CN(C(=O)c1cc2c3c(c(N)nc2cc1F)COC3)C1COc2cc(C(F)(F)F)ncc21 (racemic) [Example 460, 4-amino-7-fluoro-N-methyl-N-((3R)-6-(trifluoromethyl)-2,3-dihydrofuro[3,2-c]pyridin-3-yl)-1,3-dihydrofuro[3,4-c]quinoline-8-carboxamide and 4-amino-7-fluoro-N-methyl-N-((3S)-6-(trifluoromethyl)-2,3-dihydrofuro[3,2-c]pyridin-3-yl)-1,3-dihydrofuro[3,4-c]quinoline-8-carboxamide] here?
A: 162 nM

Q: What about the IC50 (HCT116 WT cells) of the same molecule?
A: 10800 nM

Q: How did the IC50 (HCT116 MTAP null cells) turn out when CN(C(=O)c1ccc2nc(N)c3cnn(C)c3c2c1)[C@H]1COc2cc(S(F)(F)(F)(F)F)ccc21 (single isomer, unassigned) [Example 367] was run?
A: 485 nM

Q: And the IC50 (HCT116 WT cells)?
A: 5270 nM

Q: Which results are given for CN(C(=O)c1ccc2nc(N)c3cnn(C)c3c2c1)[C@@H]1COc2cc(OC(F)(F)F)ccc21 [Example 230, 4-amino-N,1-dimethyl-N-((3S)-6-(trifluoromethoxy)-2,3-dihydro-1-benzofuran-3-yl)-1H-pyrazolo[4,3-c]quinoline-8-carboxamide]?
A: IC50 (HCT116 MTAP null cells): 7 nM; IC50 (HCT116 WT cells): 530 nM

Q: C[C@H]1OCc2c1c(N)nc1cnc(C(=O)N(C)[C@@H]3COCc4nc(C(F)(F)F)ccc43)cc21 [Example 270, (3R)-4-amino-N,3-dimethyl-N-((5S)-2-(trifluoromethyl)-5,8-dihydro-6H-pyrano[3,4-b]-pyridin-5-yl)-1,3-dihydrofuro-[3,4-c][1,7]naphthyridine-8-carboxamide] was tested. Which IC50 (HCT116 MTAP null cells) did it give?
A: 17 nM

Q: And the IC50 (HCT116 WT cells)?
A: 740 nM

Q: With CN(C(=O)c1ccc2nc(N)c3c(c2c1)COC3)[C@@H]1COc2cc(C3=CCOCC3)ccc21 (single isomer, unassigned) [Example 612] as the molecule, how does the IC50 (HCT116 MTAP null cells) read?
A: 33 nM

Q: What about the IC50 (HCT116 WT cells) of the same molecule?
A: 2640 nM

Source: patent publication US20240124442A1, “TRICYCLIC-AMIDO-BICYCLIC PRMT5 INHIBITORS” (AMGEN INC., priority 2021, published 2024)
